The values below come from patent US12109284B2, “Compositions comprising fluoride and calcium and method for preparing them” (DENTHERAPY LTD, priority 2016, dated 2024).

The conditions of data set [1]: cited from earlier work; for Buffer range: pH.
A short description of data set [2]: Microindentation cycling re-mineralisation model (Example 4). More on the design: species or system human. Here is the method:
Citric acid eroded human enamel specimens were placed into a cycling re-mineralisation model where they were cycled between a treatment, artificial saliva and citric acid five times a day over five days. Three different treatments were tested and were: 1. 2% OPN formulation containing 500 ppm fluoride. 2. 500 ppm fluoride solution. 3. Deionised water. At the end of each of the five days the micro hardness of the enamel was measured by Vickers microindentation to determine the extent of the re-mineralisation of the enamel lesions.
The microhardness of the enamel was determined by indentation using a Vickers diamond-tip indenter. Each hardness value was determined from the average of ten individual measurements made centrally on each enamel specimen using 1.9N force over an indent time of 20 seconds. At the start of each set of measurements a calibration check was performed using a standard metal block to ensure the reproducibility of microhardness was within 3% of the test block micro hardness.

`O=C([O-])O.[Na+]` [sodium bicarbonate]: the Buffer range in data set [1] is 5.1-8.0.

With `[F-].[Na+]` [NaF, sodium fluoride], the “Trend in remineralisation (microhardness ranking)” value in data set [2] (Day 1) was “OPN = NaF > DI water”; in data set [2] (Day 2), “OPN = NaF > DI water”; in data set [2] (Day 3), “NaF = OPN > DI water”; in data set [2] (Day 4 (probability 0.06)), “OPN = NaF > DI water”; in data set [2] (Day 5), “OPN > NaF > DI water”. Also, the “Increase in hardness of eroded enamel compared to deionised water” value in data set [2] (all time points) was “statistically superior to deionised water”.

On to tris(hydroxymethyl)aminomethane, for which, in data set [1], the pKa is on record as 8.97 and the Buffer range is recorded as 7.5-9.5.

For orientation: pKa means the negative logarithm of the acid dissociation constant.
